Patent US9580444B2, “Polycyclic pyrazolinone derivative and herbicide comprising same as effective component thereof” (priority 2013, dated 2017)

Key:
Assay type in all cases: in vivo
[1] = test system: Amaranthus viridis (green amaranthus); assay: Test Example-4: herbicidal effect by a foliage treatment after weeds are generated under upland field conditions; conditions: 500 g a.i/ha, foliage treatment after emergence, about 14 days after treatment, score 0-5
In short: (§1)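 Weed seeds were sown in upland soil, covered with about 0.5 cm soil and grown 14 days with watering. Diluted wettable powder or emulsifiable concentrate was then sprayed uniformly on foliage at a set dosage in 4000 L water/ha. Weed control and corn injury were scored 0–5 about 14 days later.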

[2] = test system: Abutilon theophrasti (velvetleaf); assay: as above; conditions: 500 g a.i/ha, foliage treatment after emergence, about 14 days after treatment, score 0-5
In short: as §1

[3] = test system: Chenopodium album (common lambsquarters); assay: as above; conditions: 500 g a.i/ha, foliage treatment after emergence, about 14 days after treatment, score 0-5
In short: as §1

[4] = test system: Eleocharis acicularis (needle spikerush); assay: Test Example-1: herbicidal effect by a treatment before weeds are generated under submerged conditions; conditions: 500 g a.i/ha, pre-emergence treatment, about 15 days after treatment, score 0-5
In short: (§2)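 Paddy soil in cups was puddled, seeded with the weeds and kept flooded; compound as wettable powder or emulsifiable concentrate was diluted and applied into the water on the seeding day at a set dosage. Effect was scored about 15 days later on a 0–5 scale.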

[5] = test system: Monochoria vaginalis (monochoria); assay: as above; conditions: 500 g a.i/ha, pre-emergence treatment, about 15 days after treatment, score 0-5
In short: as §2

[6] = test system: Scirpus juncoides (bulrush); assay: as above; conditions: 500 g a.i/ha, pre-emergence treatment, about 15 days after treatment, score 0-5
In short: as §2

[7] = test system: Echinochloa oryzicola (barnyard grass); assay: as above; conditions: 500 g a.i/ha, pre-emergence treatment, about 15 days after treatment, score 0-5
In short: as §2

[8] = test system: other annual broad leaf weeds (Lindernia procumbens, Rotala indica, Elatine triandra); assay: as above; conditions: 500 g a.i/ha, pre-emergence treatment, about 15 days after treatment, score 0-5
In short: as §2

[9] = test system: Cyperus difformis (smallflower umbrella plant); assay: as above; conditions: 500 g a.i/ha, pre-emergence treatment, about 15 days after treatment, score 0-5
In short: as §2

corn = assay: Test Example-4: phytotoxicity by a foliage treatment after weeds are generated under upland field conditions; conditions: 500 g a.i/ha, foliage treatment after emergence, about 14 days after treatment, score 0-5
In short: as §1

Compound | Herbicidal effect Amaranthus viridis [1] | Herbicidal effect Abutilon theophrast [2] | Herbicidal effect Chenopodium album [3] | Herbicidal effect Eleocharis acicularis [4] | Herbicidal effect Monochoria vaginalis [5] | Herbicidal effect Scirpus juncoides [6] | Herbicidal effect Echinochloa oryzicola [7] | Herbicidal effect Broadleaf weed [8] | Herbicidal effect Cyperus difformis [9] | Phytotoxicity Corn (corn)
CC(C)COc1cc(-c2c(Cl)n3n(c2=O)CCCC3)c(F)cc1Cl [Example 1-156] | 5 (Herbicidal effect/phytotoxicity was 90% or greater) | 5 (Herbicidal effect/phytotoxicity was 90% or greater) | 5 (Herbicidal effect/phytotoxicity was 90% or greater) | 5 (Herbicidal effect/phytotoxicity was 90% or greater) | 5 (Herbicidal effect/phytotoxicity was 90% or greater) | 5 (Herbicidal effect/phytotoxicity was 90% or greater) | 5 (Herbicidal effect/phytotoxicity was 90% or greater) | 5 (Herbicidal effect/phytotoxicity was 90% or greater) | 5 (Herbicidal effect/phytotoxicity was 90% or greater) | 2 (Herbicidal effect/phytotoxicity was 30% to 50%)
O=c1c(-c2cc(OCc3ccc(F)cc3)c(Cl)cc2F)c(Cl)n2n1CCCC2 [Example 1-192] | 5 (Herbicidal effect/phytotoxicity was 90% or greater) | 5 (Herbicidal effect/phytotoxicity was 90% or greater) | 5 (Herbicidal effect/phytotoxicity was 90% or greater) | 5 (Herbicidal effect/phytotoxicity was 90% or greater) | 5 (Herbicidal effect/phytotoxicity was 90% or greater) | 5 (Herbicidal effect/phytotoxicity was 90% or greater) | 5 (Herbicidal effect/phytotoxicity was 90% or greater) | 5 (Herbicidal effect/phytotoxicity was 90% or greater) | 5 (Herbicidal effect/phytotoxicity was 90% or greater) | 1 (Herbicidal effect/phytotoxicity was 10% to 30%)
Cc1cc(-c2c(Cl)n3n(c2=O)CCCC3)c(F)cc1Cl [Example 1-130] | 5 (Herbicidal effect/phytotoxicity was 90% or greater) | 5 (Herbicidal effect/phytotoxicity was 90% or greater) | 5 (Herbicidal effect/phytotoxicity was 90% or greater) | 5 (Herbicidal effect/phytotoxicity was 90% or greater) | 5 (Herbicidal effect/phytotoxicity was 90% or greater) | 5 (Herbicidal effect/phytotoxicity was 90% or greater) | 5 (Herbicidal effect/phytotoxicity was 90% or greater) | 5 (Herbicidal effect/phytotoxicity was 90% or greater) | 5 (Herbicidal effect/phytotoxicity was 90% or greater) | 1 (Herbicidal effect/phytotoxicity was 10% to 30%)
C=CCCOc1cc(-c2c(Cl)n3n(c2=O)CCCC3)c(F)cc1Cl [Example 1-222] | 5 (Herbicidal effect/phytotoxicity was 90% or greater) | 5 (Herbicidal effect/phytotoxicity was 90% or greater) | 5 (Herbicidal effect/phytotoxicity was 90% or greater) | 5 (Herbicidal effect/phytotoxicity was 90% or greater) | 5 (Herbicidal effect/phytotoxicity was 90% or greater) | 5 (Herbicidal effect/phytotoxicity was 90% or greater) | 5 (Herbicidal effect/phytotoxicity was 90% or greater) | 5 (Herbicidal effect/phytotoxicity was 90% or greater) | 5 (Herbicidal effect/phytotoxicity was 90% or greater) | 2 (Herbicidal effect/phytotoxicity was 30% to 50%)
C#CCOc1cc(-c2c(Cl)n3n(c2=O)CCCCC3)ccc1Cl [Example 1-63] | 5 (Herbicidal effect/phytotoxicity was 90% or greater) | 5 (Herbicidal effect/phytotoxicity was 90% or greater) | 5 (Herbicidal effect/phytotoxicity was 90% or greater) | 5 (Herbicidal effect/phytotoxicity was 90% or greater) | 5 (Herbicidal effect/phytotoxicity was 90% or greater) | 5 (Herbicidal effect/phytotoxicity was 90% or greater) | 5 (Herbicidal effect/phytotoxicity was 90% or greater) | 5 (Herbicidal effect/phytotoxicity was 90% or greater) | 5 (Herbicidal effect/phytotoxicity was 90% or greater) | 1 (Herbicidal effect/phytotoxicity was 10% to 30%)
C#CCOc1cc(-c2c(Cl)n3n(c2=O)CCCC3)ccc1Cl [Example 1-62] | 5 (Herbicidal effect/phytotoxicity was 90% or greater) | 5 (Herbicidal effect/phytotoxicity was 90% or greater) | 5 (Herbicidal effect/phytotoxicity was 90% or greater) | 5 (Herbicidal effect/phytotoxicity was 90% or greater) | 5 (Herbicidal effect/phytotoxicity was 90% or greater) | 5 (Herbicidal effect/phytotoxicity was 90% or greater) | 5 (Herbicidal effect/phytotoxicity was 90% or greater) | 5 (Herbicidal effect/phytotoxicity was 90% or greater) | 5 (Herbicidal effect/phytotoxicity was 90% or greater) | 0 (Herbicidal effect/phytotoxicity was 0% to 10%)
COc1cc(-c2c(Cl)n3n(c2=O)CCCC3)c(F)cc1F [Example 1-87] | 5 (Herbicidal effect/phytotoxicity was 90% or greater) | 5 (Herbicidal effect/phytotoxicity was 90% or greater) | 5 (Herbicidal effect/phytotoxicity was 90% or greater) | 5 (Herbicidal effect/phytotoxicity was 90% or greater) | 5 (Herbicidal effect/phytotoxicity was 90% or greater) | 5 (Herbicidal effect/phytotoxicity was 90% or greater) | 5 (Herbicidal effect/phytotoxicity was 90% or greater) | 5 (Herbicidal effect/phytotoxicity was 90% or greater) | 5 (Herbicidal effect/phytotoxicity was 90% or greater) | 2 (Herbicidal effect/phytotoxicity was 30% to 50%)
